Source: patent publication US10392622B2, “Compositions and methods for self-regulated inducible gene expression” (The Trustees of the University of Pennsylvania, priority 2014, dated 2019)
“Also recorded” adds a separate entry of the source.

What was measured:
[1] = system: cells; settings: CD-1, mouse
Protocol: Bioavailability of IPTG: Three CD-1 adult mice were gavaged with 25 μL of 1M IPTG per 10 g of body weight twice a day for 3 days. Animals were then sacrificed and major organs were harvested, mechanically homogenized, and steady state concentrations of IPTG in liver, kidney, skeletal muscle, and retina were determined using a beta-galacosidase assay^24. […] IPTG concentrations were tracked in various mouse tissues after a single 3-day IPTG gavage induction cycle. Data points represent mean+/−SD, n=3.

[2] = system: ARPE-19 cells; experiment: Luciferase regulation assay in transfected ARPE-19 cells with and without IPTG; format: cell-based, human
Protocol: All gene regulation assays start by transiently transfecting the cell line of choice with the appropriate plasmid. Media is supplemented with effector of varying concentration in wells (IPTG for lacI repressor experiments and doxycycline for tet repressor experiments) and specific experimental conditions are typically grown side by side in triplicate. Experimental measurement times varied depending upon cell confluence but occurred 24 to 72 hours after transfection.
Cells were lysed with Reporter Lysis Buffer (Promega) and 5 μL of whole cell lysate was added to 45 μL of luciferase assay buffer (Promega) containing luciferin in 384 well optical bottom plates (Corning). Plates were immediately loaded into the Tecan M1000 and luciferase signal was measured for each well over time. Peak luciferase signal values were used for quantification. […]
The plasmid containing the cassette controlling luciferase was transfected into human retinal pigment epithelium (ARPE-19) cells and grown with and without 2.5 mM IPTG. We measured approximately 20% basal expression with a 3.5-fold induction (p<0.05) (FIG. 1D). […]
Point mutations introduced in the repressor can decrease leakiness, increase dynamic range, or change/alter the affinity for effector molecules in bacterial cells. […] These point mutations were introduced into the repressor and induction measured in ARPE-19 cells. […]

| Molecule | gavage concentration of IPTG, fold less than concentrations toxic to cells [1] [fold] | steady state tissue concentrations of IPTG, fold less than concentrations toxic to cells ([1]; 3 days) [fold] | leakiness, dynamic range and maximal expression phenotype (in words) [2] |
| --- | --- | --- | --- |
| CC(C)SC1OC(CO)C(O)C(O)C1O [IPTG, isopropyl β-D-1-thiogalactopyranoside] | 50 | 500 |  |
| Q18M: lacI repressor point mutant in the DNA binding domain, residue 18 Q to M (protein, listed as Escherichia coli) MKPVTLYDVAEYAGVSYMTVSRVVNQASHVSAKTREKVEAAMAELNYIPNRVAQQLAGKQSLLIGVATSSLALHAPSQIVAAIKSRADQLGASVVVSMVERSGVEACKAAVHNLLAQRVSGLIINYPLDDQDAIAVEAACTNVPALFLDVSDQTPINSIIFSHEDGTRLGVEHLVALGHQQIALLAGPLSSVSARLRLAGWHKYLTRNQIQPIAEREGDWSAMSGFQQTMQMLNEGIVPTAMLVANDQMALGAMRAITESGLRVGADISVVGYDDTEDSSCYIPPLTTIKQDFRLLGQTSVDRLLQLSQGQAVKGNQLLPVSLVKRKTTLAPNTQTASPRALADSLMQLARQVSRLESGQ |  |  | deceased leakiness at the expense of maximal expression; also recorded: decreased leakiness as well as the commensurate decreased dynamic range |
| F161W: lacI repressor effector pocket point mutant, residue 161 F to W (protein, UniProt P03023 1-360, looked up, variant F161W) Lactose operon repressor: MKPVTLYDVAEYAGVSYQTVSRVVNQASHVSAKTREKVEAAMAELNYIPNRVAQQLAGKQSLLIGVATSSLALHAPSQIVAAIKSRADQLGASVVVSMVERSGVEACKAAVHNLLAQRVSGLIINYPLDDQDAIAVEAACTNVPALFLDVSDQTPINSIIWSHEDGTRLGVEHLVALGHQQIALLAGPLSSVSARLRLAGWHKYLTRNQIQPIAEREGDWSAMSGFQQTMQMLNEGIVPTAMLVANDQMALGAMRAITESGLRVGADISVVGYDDTEDSSCYIPPLTTIKQDFRLLGQTSVDRLLQLSQGQAVKGNQLLPVSLVKRKTTLAPNTQTASPRALADSLMQLARQVSRLESGQ |  |  | decreased leakiness and increased dynamic range |
